Measured values as given in patent US8436159B2, “Glyphosate resistant class I 5-endolpyruvylshikimate-3-phosphate synthase (EPSPS)” (Monsanto Technology LLC, priority 2003, dated 2013).
Substitutions are numbered along the chain they refer to.

Key:
[1] = biological target: T1, maize (Zea mays) class I EPSPS variant TIPG (T102I, P106G), pMON42480 (Zea mays, UniProt O24566, P106G/T102I); experiment: EPSPS steady-state kinetics, TIPG variant; format: biochemical
T1 construct: pMON42480
T1 sequence (O24566 1-444 T102I/P106G): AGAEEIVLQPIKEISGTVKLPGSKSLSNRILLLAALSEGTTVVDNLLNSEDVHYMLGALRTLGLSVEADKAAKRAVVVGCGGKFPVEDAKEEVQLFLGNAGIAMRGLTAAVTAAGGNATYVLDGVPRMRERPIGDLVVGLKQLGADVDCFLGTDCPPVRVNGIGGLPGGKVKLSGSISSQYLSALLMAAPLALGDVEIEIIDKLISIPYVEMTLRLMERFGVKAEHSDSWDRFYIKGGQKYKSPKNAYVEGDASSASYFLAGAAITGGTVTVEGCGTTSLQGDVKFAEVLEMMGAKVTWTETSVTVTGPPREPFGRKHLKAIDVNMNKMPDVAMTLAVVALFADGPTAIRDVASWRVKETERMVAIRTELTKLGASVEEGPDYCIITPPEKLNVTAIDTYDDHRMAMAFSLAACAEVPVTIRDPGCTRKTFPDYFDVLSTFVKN
Excerpt: (§1) The double variants of the present invention were made using pMON58452 (FIG. 5) as the template. This pMON58452 EPSPS gene template contains the maize EPSPS double variant T102I, P106T (TIPT) that was constructed by mutagenesis of pMON70467 with the mutagenesis primers mEmut-9-U and mEmut-10-L. The various mutagenesis primer sequences were designed and then were synthesized by Invitrogen Corp., Custom Primers and used in combination in a PCR to create the variant EPSPS coding sequences. The PCR was set up in a 50 μl reaction in the following manner: dH2O 38 μl; 2 mM dNTP 1 μL; 10× buffer 5 μL; pMON58452 1 μL (10 ng); primer-U 2 μL; primer-L 2 μL; pfu Turbo enzyme 1 μL. PCR was carried out on a MJ Research PTC-200 thermal cycler using the following program: Step 1—94° C. for 30 seconds; Step 2—94° C. for 30 seconds; Step 3—55° C. for 1 minute; Step 4—68° C. for 14 minute; Step 5—go to step 2, 16 times; Step 6—End. At the end of the PCR, 1 μl of the restriction enzyme DpnI was added to each 50 μl of PCR reaction and the mixture was incubated at 37° C. for 1 hour. […]

[2] = biological target: T2, maize (Zea mays) class I EPSPS variant TIPM (T102I, P106M), pMON42484 (Zea mays, UniProt O24566, P106M/T102I); experiment: EPSPS steady-state kinetics, TIPM variant; format: biochemical
T2 construct: pMON42484
T2 sequence (O24566 1-444 T102I/P106M): T1 sequence (O24566 1-444 T102I/P106G) with G106M
Excerpt: as §1

[3] = test system: E. coli EPSPS variant, alanine for the glycine at position 96 (G96A); details: glyphosate-resistant isolate; read-out: apparent Ki for glyphosate; cited from earlier work

O=C(O)CNCP(=O)(O)O [glyphosate, N-phosphonomethylglycine]
Ki [1]: 0.0386 mM | Ki [2]: 37.2 ± 1.5 mM | Ki [3]: 4 mM
